Experimental data reported in ChEMBL document CHEMBL1201862, “PubChem BioAssay data set” (2004).
Calls of active or inactive are those of the source.

Assays:
[1] = biological target: T1, Microphthalmia-associated transcription factor (Homo sapiens, UniProt O75030); assay: reducers of TRPM1 reporter luminescence, concentration series – cell-based, SK-MEL-5, cherry-picked, set 3, MITF inhibitor project, dose response (AID 493073); type: functional;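 note: SK-MEL-5 melanoma cells with luciferase driven by the MITF target TRPM1 promoter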
T1 sequence (O75030 whole entry): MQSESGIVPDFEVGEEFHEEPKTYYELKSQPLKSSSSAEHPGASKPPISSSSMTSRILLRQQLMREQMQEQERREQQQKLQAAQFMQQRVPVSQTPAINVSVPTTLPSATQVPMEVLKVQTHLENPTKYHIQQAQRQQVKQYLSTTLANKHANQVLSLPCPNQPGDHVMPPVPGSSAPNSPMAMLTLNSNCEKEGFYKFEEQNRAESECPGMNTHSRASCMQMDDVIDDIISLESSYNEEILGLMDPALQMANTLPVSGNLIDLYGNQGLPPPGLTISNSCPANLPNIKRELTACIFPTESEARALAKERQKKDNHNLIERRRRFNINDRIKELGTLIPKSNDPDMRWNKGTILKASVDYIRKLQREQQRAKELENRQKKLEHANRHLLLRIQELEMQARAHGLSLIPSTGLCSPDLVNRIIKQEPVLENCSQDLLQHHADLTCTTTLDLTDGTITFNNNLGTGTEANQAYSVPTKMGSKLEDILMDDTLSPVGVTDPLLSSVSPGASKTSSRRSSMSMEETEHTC

[2] = THP-1 cell cytotoxicity, dose response, cytotoxicity control for non-replicating M. tuberculosis project (AID 489025); type: functional
[3] = cells; type: functional
[4] = HepG2 cell cytotoxicity, dose response, cytotoxicity control for non-replicating M. tuberculosis project (AID 489018); type: functional; conditions: Mycobacterium tuberculosis
[5] = Vero E6 cell cytotoxicity, dose response, cytotoxicity control for non-replicating M. tuberculosis project, secondary assay (AID 492998); type: functional, VeroE6; conditions: Vero C1008
[6] = biological target: T2, Cannabinoid receptor 1 (Homo sapiens, UniProt P21554); assay: SAR analysis of agonists of the Cannabinoid Receptor 1 using an Image-Based Assay - Set 2. [Related pubchem assays (depositor defined):AID2013, AID2026]; type: functional
T2 sequence (P21554 whole entry): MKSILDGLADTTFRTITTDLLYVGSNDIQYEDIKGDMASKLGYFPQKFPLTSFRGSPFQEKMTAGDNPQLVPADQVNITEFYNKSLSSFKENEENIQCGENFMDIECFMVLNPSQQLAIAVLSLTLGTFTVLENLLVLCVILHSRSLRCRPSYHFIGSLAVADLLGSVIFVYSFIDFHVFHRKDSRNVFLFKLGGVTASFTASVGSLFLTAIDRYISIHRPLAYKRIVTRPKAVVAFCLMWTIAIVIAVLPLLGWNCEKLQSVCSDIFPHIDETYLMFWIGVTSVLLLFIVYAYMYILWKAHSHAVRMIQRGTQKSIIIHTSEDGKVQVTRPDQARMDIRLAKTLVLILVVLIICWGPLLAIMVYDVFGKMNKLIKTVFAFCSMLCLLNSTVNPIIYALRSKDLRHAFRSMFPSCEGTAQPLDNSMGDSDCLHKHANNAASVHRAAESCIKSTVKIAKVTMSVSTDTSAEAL

[7] = biological target: T2, Cannabinoid receptor 1; assay: SAR analysis of antagonists of the Cannabinoid Receptor 1 using an Image-Based Assay - Set 2. [Related pubchem assays (depositor defined):AID2013, AID2026]; type: functional
[8] = biological target: T3, G-protein coupled receptor 55 (Homo sapiens, UniProt Q9Y2T6); assay: blockade of LPI-induced GPR55 arrestin translocation – imaging, U2OS, beta-arrestin-GFP, LPI agonist, set 2, SAR follow-up (AID 2820); type: functional
T3 sequence (Q9Y2T6 whole entry): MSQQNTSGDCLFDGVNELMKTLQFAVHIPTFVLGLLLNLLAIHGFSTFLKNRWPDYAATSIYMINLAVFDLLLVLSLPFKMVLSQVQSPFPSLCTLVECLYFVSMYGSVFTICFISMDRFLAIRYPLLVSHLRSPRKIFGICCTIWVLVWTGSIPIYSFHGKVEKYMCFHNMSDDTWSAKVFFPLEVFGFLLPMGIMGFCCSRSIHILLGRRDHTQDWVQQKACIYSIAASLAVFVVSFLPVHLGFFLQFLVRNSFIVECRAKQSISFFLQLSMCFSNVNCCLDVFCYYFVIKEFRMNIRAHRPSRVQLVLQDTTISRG

[9] = biological target: T4, Cannabinoid receptor 2 (Homo sapiens, UniProt P34972); assay: SAR analysis of antagonists of the Cannabinoid Receptor 2 using an Image-Based Assay. [Related pubchem assays (depositor defined):AID2013, AID2026]; type: functional
T4 sequence (P34972 whole entry): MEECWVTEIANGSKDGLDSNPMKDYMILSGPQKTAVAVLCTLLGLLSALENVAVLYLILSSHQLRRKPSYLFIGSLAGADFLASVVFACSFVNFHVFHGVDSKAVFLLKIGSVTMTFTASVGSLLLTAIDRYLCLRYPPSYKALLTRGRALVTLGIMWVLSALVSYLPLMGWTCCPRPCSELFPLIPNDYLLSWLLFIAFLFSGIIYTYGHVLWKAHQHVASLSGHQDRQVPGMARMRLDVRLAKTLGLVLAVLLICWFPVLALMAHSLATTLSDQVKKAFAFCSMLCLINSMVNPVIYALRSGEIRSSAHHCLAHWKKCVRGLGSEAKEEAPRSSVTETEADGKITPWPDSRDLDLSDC

[10] = biological target: T4, Cannabinoid receptor 2; assay: SAR analysis of agonists of the Cannabinoid Receptor 2 using an Image-Based Assay. [Related pubchem assays (depositor defined):AID2013, AID2026]; type: functional
[11] = biological target: T5, Corticotropin-releasing factor receptor 2/Corticotropin-releasing factor-binding protein (Homo sapiens, UniProt P24387+Q13324); assay: activators of CRF receptor 2 with binding protein – uHTS hits, confirmation (AID 602473); type: functional; conditions: read-out: EC50_Mean
T5 sequence (Q13324 whole entry): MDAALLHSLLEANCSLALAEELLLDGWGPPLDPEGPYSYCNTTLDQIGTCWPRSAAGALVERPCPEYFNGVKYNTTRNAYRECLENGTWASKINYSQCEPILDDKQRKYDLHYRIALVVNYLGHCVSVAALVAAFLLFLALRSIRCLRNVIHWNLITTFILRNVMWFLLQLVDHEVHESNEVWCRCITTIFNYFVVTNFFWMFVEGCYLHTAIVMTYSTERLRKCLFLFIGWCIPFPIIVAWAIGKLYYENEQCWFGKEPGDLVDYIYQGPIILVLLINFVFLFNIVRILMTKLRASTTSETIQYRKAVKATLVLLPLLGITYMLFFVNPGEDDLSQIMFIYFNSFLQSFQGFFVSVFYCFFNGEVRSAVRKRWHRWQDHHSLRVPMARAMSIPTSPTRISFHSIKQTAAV
T5 sequence (P24387 whole entry): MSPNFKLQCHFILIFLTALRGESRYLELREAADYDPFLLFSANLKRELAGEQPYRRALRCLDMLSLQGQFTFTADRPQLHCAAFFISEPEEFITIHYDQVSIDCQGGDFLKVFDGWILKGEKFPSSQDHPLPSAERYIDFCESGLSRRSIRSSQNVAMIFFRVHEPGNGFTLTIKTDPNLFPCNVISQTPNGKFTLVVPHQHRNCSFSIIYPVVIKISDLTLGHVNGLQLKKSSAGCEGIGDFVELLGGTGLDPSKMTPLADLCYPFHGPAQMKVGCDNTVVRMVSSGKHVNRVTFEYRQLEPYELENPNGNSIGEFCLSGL

[12] = biological target: T6, G-protein coupled receptor 35 (Homo sapiens, UniProt Q9HC97); assay: SAR analysis of Agonists of the GPR35 Receptor using an Image-Based Assay - Set 2. [Related pubchem assays (depositor defined):AID2013, AID2026]; type: functional
T6 sequence (Q9HC97 whole entry): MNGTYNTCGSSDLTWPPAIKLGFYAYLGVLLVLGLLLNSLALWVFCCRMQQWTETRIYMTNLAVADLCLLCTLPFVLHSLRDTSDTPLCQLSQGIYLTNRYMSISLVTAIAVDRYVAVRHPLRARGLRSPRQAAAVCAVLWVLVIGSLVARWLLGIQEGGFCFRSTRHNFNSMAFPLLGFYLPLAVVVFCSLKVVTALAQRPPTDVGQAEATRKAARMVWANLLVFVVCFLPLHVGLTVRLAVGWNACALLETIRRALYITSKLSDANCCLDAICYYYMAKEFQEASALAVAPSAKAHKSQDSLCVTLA

[13] = biological target: T5, Corticotropin-releasing factor receptor 2/Corticotropin-releasing factor-binding protein; assay: Dose Response confirmation of uHTS hits for small molecule antagonists of the CRF-binding protein and CRF-R2 receptor complex.; type: functional; conditions: read-out: IC50_Mean
[14] = biological target: T6, G-protein coupled receptor 35; assay: SAR analysis of Antagonists of the GPR35 Receptor using an Image-Based Assay - Set 3. [Related pubchem assays (depositor defined):AID2013, AID2026]; type: functional
[15] = biological target: T3, G-protein coupled receptor 55; assay: inhibition of LPI-stimulated GPR55 beta-arrestin translocation – imaging, U2OS, beta-arrestin-GFP, LPI agonist, primary screen (AID 2013); type: functional;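 note: antagonist potency measured as reduced agonist-driven arrestin aggregation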
[16] = biological target: Luciferin 4-monooxygenase (Photinus pyralis, UniProt P08659); assay: inhibition of purified Photinus pyralis luciferase – biochemical, luminescence, dose response (AID 1891)
Chain of Luciferin 4-monooxygenase (P08659 whole entry): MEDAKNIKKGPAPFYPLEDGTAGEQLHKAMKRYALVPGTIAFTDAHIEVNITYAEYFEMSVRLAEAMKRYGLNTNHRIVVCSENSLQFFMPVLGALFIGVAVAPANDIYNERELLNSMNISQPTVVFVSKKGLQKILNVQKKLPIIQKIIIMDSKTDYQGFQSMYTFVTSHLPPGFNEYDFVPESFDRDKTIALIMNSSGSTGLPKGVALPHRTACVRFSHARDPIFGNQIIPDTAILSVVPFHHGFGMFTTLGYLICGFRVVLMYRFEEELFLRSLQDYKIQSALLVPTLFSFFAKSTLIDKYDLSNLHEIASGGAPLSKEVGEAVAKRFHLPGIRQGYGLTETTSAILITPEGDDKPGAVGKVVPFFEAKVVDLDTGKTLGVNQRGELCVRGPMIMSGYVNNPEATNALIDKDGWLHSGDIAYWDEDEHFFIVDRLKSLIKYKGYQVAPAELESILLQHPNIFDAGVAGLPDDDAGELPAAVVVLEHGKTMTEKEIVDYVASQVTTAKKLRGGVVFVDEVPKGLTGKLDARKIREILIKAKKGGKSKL

[17] = Luminescence Cell-Based Dose Confirmation HTS to Identify Inhibitors of Platelet Dense Granule Release. [Related pubchem assays: 1663 (Primary HTS), 1678 (Summary of Project)]; type: functional
[18] = cells; type: functional, cell-based
[19] = cells; type: functional, cell-based; remark: listed apart in the source
[20] = system: INS1; assay: INS-1E survival protection against cytokine death – cell-based, luminescence, retest, dose response (AID 449756); type: functional; conditions: Rattus norvegicus;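 note: cell death triggered by IL-1 beta plus TNF-alpha plus IFN-gamma mixture; protective hits raise ATP signal compared with cytokine alone wells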

For `Cc1ccc(NC(=O)c2ccc([N+](=O)[O-])o2)cc1S(=O)(=O)N1CCOCC1`, the AC50 [1] was 11.4 µM (active), the CC50 [2] was 6.1 µM (active) and the IC50 [3] was 18.4 µM (active). For the same compound, the CC50 [4] was 9.48 µM (active) and the CC50 [5] was 6.5 µM (active).

For `COC(=O)C1=C(N)c2c(F)cccc2C1(C#N)c1ccccc1` (stereo not drawn), the EC50 [6] was > 32 µM (inactive), the IC50 [7] was > 32 µM (inactive) and the IC50 [8] was 0.928 µM (active). The IC50 [9] was > 32 µM (inactive), the EC50 [10] was > 32 µM (inactive) and the EC50 [11] was > 53 µM (inactive). For the same compound, the EC50 [12] was > 32 µM (inactive), the IC50 [13] was > 47.1 µM (inactive) and the IC50 [14] was > 32 µM (inactive). The IC50 [15] was 2.34 µM (active).

With `COc1cccc(/C=N/NC(=O)c2ccoc2C)c1O` the EC50 [16] was 4.56 µM (active), the EC50 [17] was 2.09 µM (active) and the CC50 [2] was 4.17 µM (active). The CC50 [4] was 6.69 µM (active), the CC50 [5] was 9.35 µM (active) and the EC50 [18] was 82.2 µM (active). For the same compound, the EC50 [19] was 7.29 µM (active) and the AC50 [20] was 3.85 µM (active).
